Data published in patent US7998986B2, “Modulators of LXR” (Exelixis Patent Company LLC, priority 2001, dated 2011).

Key:
LXRα [1] = molecular target: T1, LXRα (Homo sapiens, UniProt Q13133); experiment: Scintillation proximity assay (SPA), displacement of 3H-24,25-epoxycholesterol; parameters: made in house; details: scintillation proximity binding assay; average of at least two dose response experiments; read-out: Ki(α)
T1 sequence (Q13133 1-447): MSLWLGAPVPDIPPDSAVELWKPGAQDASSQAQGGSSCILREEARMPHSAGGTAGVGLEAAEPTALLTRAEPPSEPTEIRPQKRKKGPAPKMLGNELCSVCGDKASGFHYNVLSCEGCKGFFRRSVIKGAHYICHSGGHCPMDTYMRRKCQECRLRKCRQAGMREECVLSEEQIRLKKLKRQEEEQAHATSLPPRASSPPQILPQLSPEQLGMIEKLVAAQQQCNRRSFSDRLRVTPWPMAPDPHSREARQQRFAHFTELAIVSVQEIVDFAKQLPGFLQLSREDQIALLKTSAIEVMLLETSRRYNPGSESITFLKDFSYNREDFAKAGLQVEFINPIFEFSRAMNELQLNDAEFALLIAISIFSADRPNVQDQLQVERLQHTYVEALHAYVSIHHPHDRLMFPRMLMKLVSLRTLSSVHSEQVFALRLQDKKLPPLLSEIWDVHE
T1 sequence (P19793 1-462 partner): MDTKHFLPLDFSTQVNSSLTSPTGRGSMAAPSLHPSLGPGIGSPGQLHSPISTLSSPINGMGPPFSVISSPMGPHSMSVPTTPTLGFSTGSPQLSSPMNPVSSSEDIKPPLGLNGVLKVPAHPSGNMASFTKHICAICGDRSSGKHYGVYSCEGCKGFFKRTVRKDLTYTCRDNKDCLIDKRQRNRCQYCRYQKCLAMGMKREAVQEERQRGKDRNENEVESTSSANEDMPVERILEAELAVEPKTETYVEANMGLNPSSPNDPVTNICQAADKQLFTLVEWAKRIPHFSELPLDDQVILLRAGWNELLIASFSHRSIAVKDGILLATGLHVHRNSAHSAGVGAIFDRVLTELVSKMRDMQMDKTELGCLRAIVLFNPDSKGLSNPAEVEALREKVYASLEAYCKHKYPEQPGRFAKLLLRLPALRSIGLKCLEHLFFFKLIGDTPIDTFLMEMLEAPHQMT
Procedure: (§1) The SPA assay measures the radioactive signal generated by the binding of ^3H-24, 25-epoxycholesterol to LXRα or LXRβ. The basis of the assay is the use of SPA beads containing a scintillant, such that when binding to the receptor brings the labeled ligand into proximity with the bead, the energy from the label stimulates the scintillant to emit light. The light is measured using a standard microplate scintillation reader. The ability of a ligand to bind to a receptor can be measured by assessing the degree to which the compound can compete off a radiolabelled ligand with known affinity for the receptor.
(§2) A. Required Materials • 1. Label: ^3H-24, 25-epoxy-cholesterol (Amersham) • 2. LXRα lysate: Baculovirus expressed LXRα/RXR heterodimer with RXR having a 6-HIS tag produced as a crude lysate • 3. LXRβ lysate: Baculovirus expressed LXRβ/RXR heterodimer with RXR having a 6-HIS tag produced as a crude lysate • 4. SPA beads: Ysi copper His-tag SPA beads (Amersham) • 5. Plates: Non-binding surface 96-well plate (Corning) • 6. Protein lysate dilution buffer: (20 mM Tris-HCl pH 7.9, 500 mM NaCl, 5 mM Imidazole). • 7. 2×SPA Buffer: (40 mM K2HPO4/KH2PO4 pH7.3, 100 mM NaCl, 0.05% Tween 20, 20% Glycerol, 4mM EDTA) • 8. 2×SPA Buffer w/o EDTA: (40 mM K2HPO4/KH2PO4 pH7.3, 100 mM NaCl, 0.05% Tween 20, 20% Glycerol)
(§3) B. Preparation of Screening Reagents • 1. [^3H]24,25 Epoxycholesterol (EC) solution. For a single 384-well plate (or 400 wells), add 21 μl [^3H] EC (specific activity 76.5Ci/mmol, concentration 3.2mCi/ml) in 4.4 ml of 2×SPA buffer to a final concentration of 200nM. For each additional 384-well plate, add 19.1 μl additional [^3H] EC and 4.0 ml additional 2×SPA buffer. The final concentration of [^3H] EC in the well will be 50 nM. • 2. Dilute LXRα lysate with protein lysate dilution buffer. Make 1400 μl of diluted LXRα lysate for a 384-well plate, (or 200 wells) and 1120 μl of diluted LXRα lysate for each additional 384-well plate. • 3. Diluted LXRβ lysate with protein lysate dilution buffer. Make 1400 μl of diluted LXRβ lysate for 1 a 384-well plate, (or 200 wells) and 1120 μl of diluted LXRβ lysate for each additional 384-well plate. • 4. SPA bead solution. For 1 a 384-well plate (or 400 wells), mix 3.75 ml of 2× SPA buffer w/o EDTA, 2.25 ml of H2O, and 1.5 ml of Ysi His-tag SPA beads (Vortex well before taking). For each addition 384-well plate, mix additional 3.5 ml of 2×SPA buffer w/o EDTA, 2.1 ml of H2O, and 1.4 ml of Ysi His-tag SPA beads to the SPA bead solution.
(§4) C. Procedure: • 1. Prepare appropriate dilutions of each compound and pipette into the appropriate wells of a multiwell plate. • 2. Add 9.1 μl of [^3H] EC to each well of column 2-23 of the multiwell plate. • 3. Add 5 μl of diluted LXRα lysate to each well of column 2-23 on odd rows of the multiwell plate. • Add 5 μl of diluted LXRβ lysate to each well of column 2-23 on even rows of the multiwell plate. • 4. Add 17.5 μl of SPA bead solution to each well of column 2-23 of the multiwell plate. • 5. Cover the plates with clear sealer. Place the plates in the MicroBeta. Incubate at room temperature for 1 hr. • 6. Count using program n ABASE 3H—384DPM. The setting for n ABASE 3H—384DPM is:
(§5) Assays for LXRα and LXRβ were performed in the identical manner. The determined Ki represents the average of at least two independent dose response experiments. The binding affinity for each compound may be determined by non-linear regression analysis using the one site competition formula to determine the IC50 where:
(§6) [formula] The Ki is than calculated using the Cheng and Prusoff equation where:
(§7) [formula] Ligand=50 nM EC and Kd=200 nM as determined by saturation binding

LXRβ [2] = molecular target: T2, LXRβ (Homo sapiens, UniProt P55055); experiment: as above; parameters: made in house; details: scintillation proximity binding assay; average of at least two dose response experiments; read-out: Ki(β)
T2 sequence (P55055 1-460): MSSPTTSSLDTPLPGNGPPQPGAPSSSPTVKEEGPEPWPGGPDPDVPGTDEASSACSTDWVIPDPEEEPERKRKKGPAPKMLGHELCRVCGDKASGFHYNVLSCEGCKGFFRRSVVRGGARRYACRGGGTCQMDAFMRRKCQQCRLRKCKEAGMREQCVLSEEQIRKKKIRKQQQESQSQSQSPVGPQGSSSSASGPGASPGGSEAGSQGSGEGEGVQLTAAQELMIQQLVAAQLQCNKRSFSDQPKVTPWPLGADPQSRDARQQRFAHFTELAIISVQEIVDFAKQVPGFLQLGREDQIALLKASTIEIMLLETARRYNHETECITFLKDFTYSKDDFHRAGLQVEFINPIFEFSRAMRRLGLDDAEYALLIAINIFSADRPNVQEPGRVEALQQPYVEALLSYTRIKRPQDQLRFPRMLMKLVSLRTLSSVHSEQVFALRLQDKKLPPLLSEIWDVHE
T2 sequence (P19793 1-462 partner): T1 sequence (P19793 1-462 partner)
Procedure: as §1, §2, §3, §4, §5, §6, §7

LXRα [3] = molecular target: T1, LXRα; experiment: LXR/LXRE co-transfection assay (luciferase reporter, CV-1 cells); assay type: cell-based; parameters: expressed in transfected cells; host or cells: CV-1 African Green Monkey Kidney Cells; details: for EC50: CV-1 cells, agonism; for LXRα/LXRE Eff: efficacy relative to control N-(3-((4-fluorophenyl)-(naphthalene-2-sulfonyl)-amino)propyl)-2,2-dimethylpropionamide
Text: (§8) To measure the ability of compounds to activate or inhibit the transcriptional activity of LXR, in a cell based assay, the cotransfection assay may be used. It has been shown that LXR functions as a heterodimer with RXR. For the co-transfection assay, expression plasmids for LXR and RXR are introduced via transient transfection into mammalian cells along with a luciferase reporter plasmid that contains one copy of a DNA sequence that is bound by LXR-RXR heterodimers (LXRE; Willy, P. et al. 1995). Treatment of transfected cells with an LXR agonist increases the transcriptional activity of LXR, which is measured by an increase in luciferase activity.
(§9) A. Required Materials • 1. CV-1 African Green Monkey Kidney Cells • 2. Co-transfection Expression plasmids, CMX-hLXR, or CMX-hLXR, CMX-RXR, reporter (LXREx1-Tk-Luciferase), and control (CMX-Galactosidase expression vector). • 3. Transfection reagent such as FuGENE6 (Roche). • 4. 1× Cell lysis buffer (1% Triton X 100 (JT Baker X200-07), 10% Glycerol (JT Baker M778-07), 5 mM Ditriotreitol (Quantum Bioprobe DTT03; add fresh before lysing), 1 mM EGTA (Ethylene Glycol-bis (B-Amino ethyl ether)-N,N,N′,N′-Tetracetic Acid) (Sigma E-4378), 25 mM Tricine (ICN 807420) pH 7.8 • 5. 1× Luciferase assay buffer (pH at 7.8) (0.73 mM ATP, 22.3 mM Tricine, 0.11 mM EDTA 33.3 mM DTT) • 6. 1× Luciferrin/CoA (11 mM Luciferin, 3.05 mM Coenzyme A, 10 mM HEPES
(§10) B. Preparation of Screening Reagents • 1. CV-1 cells are prepared 24 hours prior to the experiment by plating them into T-175 flasks or 500 cm^2 dishes in order to achieve 70-80% confluency on the day of the transfection. The number of cells to be transfected is determined by the number of plates to be screened. Each 384 well plate requires 1.92×10^6 cells or 5000 cells per well. • 2. DNA Transfection Reagent is prepared by mixing the required plasmid DNAs with a cationic lipid transfection reagent such as DOTAP or FuGENE6 by following the instructions provided with the reagents. Optimal DNA amounts need to be determined empirically per cell line and size of vessel to be transfected. • 3. Add 10-12 mls media to the DNA Transfection Reagent and add this mixture to the cells after aspirating media from a T175 cm^2 flask. • 4. Incubate at least 5 hours at 37 degrees to prepare screening cells. • 5. Luciferase assay reagent is prepared by combining before use (per • 10 ml): • 10 ml 1× Luciferase assay buffer • 0.54 mls of 1× Luciferrin/CoA • 0.54 mls of 0.2 M Magnesium sulfate
(§11) 1. C. Procedure • 1. Prepare assay plates by dispensing 0.5 ul of 1 mM compound per well of a 384 well plate to achieve final compound concentration of 10 uM and 1% DMSO. • 2. Remove media from the screening cells, trypsinize, harvest cells by centrifugation, count the cells, and plate at 5000 cells per well in the 384 well assay plate prepared above in a volume of about 45 ul. • 3. Incubate assay plates containing both compounds and screening cells for 20 hours at 37 C. degrees. • 4. Carefully aspirate media from cells and ensure that cells are not lifted off. • 5. Add lysis buffer (30 ul/well) and incubate at least 30 minutes room temp. • 6. Add luciferase assay buffer (30 ul/well) and read assay plates on luminometer (PE Biosystems Northstar reader with on-board injectors, or equivalent). • 7. Read plates immediately after addition of luciferase assay reagent.
(§12) The LXR/LXRE co-transfection assay can be used to establish the EC50/IC50 values for potency and percent activity or inhibition for efficacy. Efficacy defines the activity of a compound relative to a high control ((N-(3-((4-fluorophenyl)-(naphthalene-2-sulfonyl)-amino)propyl)-2,2-dimethylpropionamide)) or a low control (DMSO/vehicle). The dose response curves are generated from an 8 point curve with concentrations differing by ½ LOG units. Each point represents the average of 4 wells of data from a 384 well plate. The curve for the data is generated by using the equation: Y=Bottom+(Top-Bottom)/(1+10^((LogEC50-X)*HillSlope)) […]

LXRβ [4] = molecular target: T2, LXRβ; experiment: as above; assay type: cell-based; parameters: expressed in transfected cells; host or cells: CV-1 African Green Monkey Kidney Cells; details: for EC50: CV-1 cells, agonism; for LXRβ/LXRE Eff: efficacy relative to control N-(3-((4-fluorophenyl)-(naphthalene-2-sulfonyl)-amino)propyl)-2,2-dimethylpropionamide
Text: as §8, §9, §10, §11, §12

| Compound | Ki (LXRα [1]) [nM] | Ki (LXRβ [2]) [nM] | EC50 (LXRα [3]) [nM] | LXRα/LXRE Eff (LXRα [3]) [%] | EC50 (LXRβ [4]) [nM] | LXRβ/LXRE Eff (LXRβ [4]) [%] |
| --- | --- | --- | --- | --- | --- | --- |
| N#Cc1c(C(F)(F)F)cc(-c2ccccc2)n(N=C2CCCCC2)c1=O [1-Cyclohexylideneamino-2-oxo-6-phenyl-4-trifluoromethyl-1,2-dihydropyridine-3-carbonitrile] | 690 | 450 | 3400 | 90 | 4300 | 72 |
| N#Cc1c(C(F)(F)F)cc(-c2cccs2)n(Cc2ccccc2)c1=O [1-Benzyl-2-oxo-6-thiophen-2-yl-4-trifluoromethyl-1,2-dihydro-pyridine-3-carbonitrile] | 1400 | 580 | 1600 | 56 | 1800 | 82 |
| Cc1ccc(Cn2c(-c3ccccc3)cc(C(F)(F)F)c(C#N)c2=O)o1 [1-(5-Methyl-furan-2-ylmethyl)-2-oxo-6-phenyl-4-trifluoromethyl-1,2-dihydro-pyridine-3-carbonitrile] | 360 | 230 | 580 | 91 | 810 | 93 |
| COc1cccc(-c2cc(C(F)(F)F)c(C#N)c(=O)n2Cc2ccccc2)c1 [1-Benzyl-6-(3-methoxy-phenyl)-2-oxo-4-trifluoromethyl-1,2-dihydro-pyridine-3-carbonitrile] | 510 | 120 | 1200 | 78 | 840 | 79 |
